Type in all cases: cell-based
Test [1] has as its system fetal dopaminergic neurons (TH+) in culture. Nature of the test: dopaminergic neuron spontaneous degeneration model, second protocol (Mourlevat et al.), TH+ neuron count after 10 days. As to conditions: Rattus norvegicus, 240 h, read-out: TH+ neurons in % of control ± Std. Err. The procedure: This second protocol is described in the article by Mourlevat, P. P. Michel et al. Molecular Pharmacology 2003, 64:578-586 (“Prevention of Dopaminergic Neuronal Death by Cyclic AMP in Mixed Neuronal/Glial Mesencephalic Cultures Requires the Repression of Presumptive Astrocytes”). […] Compounds according to the invention were evaluated at 50 μM except compound 4bc which was assessed at 100 μM.

Test [2] concerns dopaminergic neurons (TH+) of rat embryo ventral midbrain culture. As to the kind of experiment: dopaminergic neuron spontaneous degeneration model in culture, TH+ neuron count after 8 days (Schmidt et al. protocol). The settings on record: Rattus norvegicus, Neuron, 192 h; compound at 100 nM; 8 days of culture; read-out: TH+ neurons in % of control ± SEM. The procedure: (§1) Quinoxaline derivatives were tested on a dopaminergic neuron spontaneous degeneration model in culture according to the protocol described in the article by F. Schmidt et al. […] This model consists of culturing rat embryo ventral midbrain. This part of the brain in culture contains a proportion of dopaminergic neurons of 5% of the total neurons; the other neurons are mainly GABAergic. These cultures are also composed of glial cells, i.e., astrocytes, oligodendrocytes and microglia. These cultures are characterized by progressive neuron death.

Test [3] shares this test system. As to the kind of experiment: neuritogenic activity: neurite outgrowth per cell / differentiation of TH+ neurons. As to conditions: Rattus norvegicus, Neuron; compound at 100 nM; read-out: Diff in % of control ± SEM. The procedure:
as §1, with “death. […] To assess the neuritogenic activity of compounds according to the invention, neurite outgrowth per cell was quantified using the Neurite Outgrowth software developed by Xplora Nova. At least 60 neurons per condition were photographed and studied.” for “death.”

Setting [4] is: compound at 50 μM, 10 days of culture, one experiment in triplicate.

The structures appear in SMILES notation. Read-outs that look alike come from different tables or passages of the source.

For `Nc1ccc2ncc(-c3ccccc3)nc2c1` [Compound 4ac], the activity at 50 µM in test [1] is 189 ± 11%.

On to `CCCCc1cnc2ccc(N)cc2n1` [Compound 4ad], for which the activity at 0.1 µM in test [2] was found to be 101%; in test [3] it was 118%.

For the compound `CCCCc1nc2cc(N)ccc2nc1C` [Compound 4bd], the activity at 0.1 µM in test [2] came out at 121%; in test [3] it was 102%.

Turning to `COc1ccc(-c2nc3cc(N)ccc3nc2-c2ccccc2)cc1` [Compound 4ch], the activity at 50 µM in test [1] (setting [4]) turned out to be 130 ± 10%.

`CCCCCCc1nc2ccc(N)cc2nc1CCCC` [Compound 4ed]: the values for the activity at 0.1 µM in test [2] and in test [3] were 115% and 104%, respectively.

As for `Cc1nc2ccc(N)c(Br)c2nc1-c1ccccc1` [Compound 7bc], the activity at 50 µM in test [1] (setting [4]) was found to be 153 ± 12%.

Regarding `Cc1nc2ccc(N)c(Cl)c2nc1-c1ccccc1` [Compound 8bc], the activity at 50 µM in test [1] (setting [4]) stood at 129 ± 8%.

Regarding `C#CCNc1ccc2nc(C)c(-c3ccccc3)nc2c1` [Compound 9bc], in test [1] (setting [4]), the activity at 50 µM came to 174 ± 15%.

`C#CCNc1ccc2nc(C)c(-c3ccc(F)cc3)nc2c1` [Compound 9bm]: the activity at 50 µM in test [1] (setting [4]) turned out to be 166 ± 15%.

The values are drawn from patent US9434701B2, “Aminoquinoxaline derivatives for treatment of neurodegenerative diseases” (CENTRE NATIONAL DE LA RECHERCHE SCIENTIFIQUE (CNRS), priority 2011, dated 2016).
